Values quoted from earlier work, collected in article PMC6719874 (PLoS ONE, 2019).
“Also recorded” adds a separate entry of the source.

Key:
[1] = molecular target: F656A hERG (Homo sapiens, UniProt Q12809, F656A); details: F656A ref 87
[2] = molecular target: T1, Y652A hERG (Homo sapiens, UniProt Q12809, Y652A); details: Y652A ref 87
T1 construct: host or cells: Xenopus laevis oocytes injected with cRNA

[3] = test system: tumors / human xenografts
[4] = test system: L-type calcium channels; design: method as in PMID 17125805, PMID 19887376
[5] = test system: S620T hERG

Sequence of F656A hERG (Q12809 whole entry F656A): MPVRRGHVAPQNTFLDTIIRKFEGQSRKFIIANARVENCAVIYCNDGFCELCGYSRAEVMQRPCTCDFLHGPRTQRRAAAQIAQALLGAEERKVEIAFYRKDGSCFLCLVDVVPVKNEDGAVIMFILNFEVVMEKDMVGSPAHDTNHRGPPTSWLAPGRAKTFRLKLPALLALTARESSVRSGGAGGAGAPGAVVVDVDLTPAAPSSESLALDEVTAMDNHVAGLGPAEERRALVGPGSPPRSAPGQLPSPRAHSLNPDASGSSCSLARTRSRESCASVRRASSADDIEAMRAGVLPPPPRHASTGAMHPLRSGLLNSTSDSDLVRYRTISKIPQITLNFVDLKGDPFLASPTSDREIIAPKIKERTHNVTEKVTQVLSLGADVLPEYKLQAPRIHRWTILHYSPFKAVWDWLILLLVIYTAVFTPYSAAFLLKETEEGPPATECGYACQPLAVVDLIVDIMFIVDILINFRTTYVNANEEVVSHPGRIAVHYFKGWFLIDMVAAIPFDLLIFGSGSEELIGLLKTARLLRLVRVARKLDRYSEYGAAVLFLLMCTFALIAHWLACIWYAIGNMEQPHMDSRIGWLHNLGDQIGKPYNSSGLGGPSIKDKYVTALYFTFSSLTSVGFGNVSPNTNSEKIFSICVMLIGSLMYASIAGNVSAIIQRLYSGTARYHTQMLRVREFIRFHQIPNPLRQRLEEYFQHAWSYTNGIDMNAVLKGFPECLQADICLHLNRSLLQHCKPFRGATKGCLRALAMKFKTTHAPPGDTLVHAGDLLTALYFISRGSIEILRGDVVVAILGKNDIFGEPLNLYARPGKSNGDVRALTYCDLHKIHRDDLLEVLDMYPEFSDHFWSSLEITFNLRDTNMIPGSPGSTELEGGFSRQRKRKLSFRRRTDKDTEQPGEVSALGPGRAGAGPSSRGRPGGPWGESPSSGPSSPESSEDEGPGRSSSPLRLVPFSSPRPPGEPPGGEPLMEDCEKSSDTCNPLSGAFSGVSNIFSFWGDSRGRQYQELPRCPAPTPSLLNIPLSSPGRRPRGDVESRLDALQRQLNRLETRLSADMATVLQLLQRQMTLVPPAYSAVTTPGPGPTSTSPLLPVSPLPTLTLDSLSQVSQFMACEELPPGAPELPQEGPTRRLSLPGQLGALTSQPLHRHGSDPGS
T1 sequence (Q12809 whole entry Y652A): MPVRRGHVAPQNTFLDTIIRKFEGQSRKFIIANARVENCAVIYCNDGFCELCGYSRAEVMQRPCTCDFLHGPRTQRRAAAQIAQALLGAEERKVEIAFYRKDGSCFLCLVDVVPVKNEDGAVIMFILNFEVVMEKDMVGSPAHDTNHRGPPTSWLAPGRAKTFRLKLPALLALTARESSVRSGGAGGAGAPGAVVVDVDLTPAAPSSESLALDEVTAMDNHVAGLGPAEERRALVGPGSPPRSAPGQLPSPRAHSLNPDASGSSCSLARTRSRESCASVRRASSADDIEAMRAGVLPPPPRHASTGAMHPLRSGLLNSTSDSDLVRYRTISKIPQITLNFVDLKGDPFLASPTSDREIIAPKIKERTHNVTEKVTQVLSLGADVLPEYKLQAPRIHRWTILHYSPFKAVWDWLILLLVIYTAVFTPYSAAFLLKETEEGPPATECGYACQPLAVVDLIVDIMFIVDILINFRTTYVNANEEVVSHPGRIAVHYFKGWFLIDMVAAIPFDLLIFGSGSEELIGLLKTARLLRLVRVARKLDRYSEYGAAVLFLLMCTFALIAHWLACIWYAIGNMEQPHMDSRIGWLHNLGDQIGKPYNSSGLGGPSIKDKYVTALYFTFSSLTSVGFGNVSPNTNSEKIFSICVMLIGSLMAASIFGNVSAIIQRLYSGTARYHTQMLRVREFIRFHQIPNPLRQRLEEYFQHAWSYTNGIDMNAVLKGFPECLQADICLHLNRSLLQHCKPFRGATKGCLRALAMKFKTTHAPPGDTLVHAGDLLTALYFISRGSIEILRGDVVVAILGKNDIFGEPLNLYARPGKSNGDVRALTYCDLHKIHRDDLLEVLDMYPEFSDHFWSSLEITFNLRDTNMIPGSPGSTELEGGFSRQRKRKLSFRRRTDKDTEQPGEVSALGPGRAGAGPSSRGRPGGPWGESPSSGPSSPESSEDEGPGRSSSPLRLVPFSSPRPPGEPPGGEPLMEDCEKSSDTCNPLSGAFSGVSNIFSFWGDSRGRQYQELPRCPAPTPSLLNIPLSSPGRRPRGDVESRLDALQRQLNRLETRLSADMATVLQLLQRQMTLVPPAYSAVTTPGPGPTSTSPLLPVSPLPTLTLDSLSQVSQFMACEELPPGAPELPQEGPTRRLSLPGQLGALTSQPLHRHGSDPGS

Compound | fold change in IC50 in relation to WT [1] | fold change in IC50 in relation to WT [2] | tumor suppression ([3]; mice ref 75-77) | growth delay of human xenografts ([3]; mice ref 78) | QT prolongation or other cardiac side effects (clinical trial, range of concentrations ref 18) | tolerability (phase II clinical trials) | potency of inhibition [4] | inhibition of S620T compared to WT [5]
Cc1cccc(C)c1OCC(C)N (centres unmarked) [mexiletine] | ~ 28 fold | ~ 12 fold | – | – | – | – | – | –
CCC(CO)Nc1nc(NCc2ccccc2)c2ncn(C(C)C)c2n1 (centres unmarked) [R-roscovitine, 2-(1-ethyl-2-hydroxyethylamino)-6-benzylamino-9-isopropylpurine] | – | – | significant tumor suppression | significant growth delay | did not find QT prolongation or other cardiac side effects | well tolerated | ~ 25 μM | similar; also recorded: not different from WT inhibition
